Measured values taken from article PMC11882969 (Nature Communications, 2025).
Several values for one entry are separate records, joined by “and”; a condition that tells them apart may be missing. Equal values may be shown once. Read-outs that look alike come from different tables or passages of the source.

Legend:
CB1 (rCB1) = CB1 (rCB1) (Rattus norvegicus, UniProt P20272); assay: Radioligand competition binding, [3H]-CP-55,940, rat brain membranes
hCB1 = hCB1 (Homo sapiens, UniProt P21554); assay: bioSensAll ebBRET signaling profiling, hCB1; assay type: cell-based; set-up: host or cells: HEK293SL cells, transient PEI transfection; conditions: for Gi1 hCB1 response: Gi1 biosensor; for Gi1 hCB1 / GoB hCB1: single replicate values, FigS6a; for Emax [95% CI]: normalized to CP-55,940; for EC50: read-out: EC50 [95% CI]
Chain of hCB1 (P21554 whole entry): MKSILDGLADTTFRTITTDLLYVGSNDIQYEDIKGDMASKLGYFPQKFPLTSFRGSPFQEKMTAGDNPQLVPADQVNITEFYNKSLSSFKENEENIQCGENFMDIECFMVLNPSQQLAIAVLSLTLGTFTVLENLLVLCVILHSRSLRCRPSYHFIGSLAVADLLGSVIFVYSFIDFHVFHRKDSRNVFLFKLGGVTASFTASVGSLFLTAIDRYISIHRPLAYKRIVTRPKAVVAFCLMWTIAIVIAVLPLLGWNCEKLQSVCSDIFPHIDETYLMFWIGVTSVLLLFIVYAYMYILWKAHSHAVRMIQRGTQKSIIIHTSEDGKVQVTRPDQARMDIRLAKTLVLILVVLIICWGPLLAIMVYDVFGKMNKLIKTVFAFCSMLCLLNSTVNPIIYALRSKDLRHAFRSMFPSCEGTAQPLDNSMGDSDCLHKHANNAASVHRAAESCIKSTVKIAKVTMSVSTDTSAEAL

Chain of CB1 (rCB1) (P20272 whole entry): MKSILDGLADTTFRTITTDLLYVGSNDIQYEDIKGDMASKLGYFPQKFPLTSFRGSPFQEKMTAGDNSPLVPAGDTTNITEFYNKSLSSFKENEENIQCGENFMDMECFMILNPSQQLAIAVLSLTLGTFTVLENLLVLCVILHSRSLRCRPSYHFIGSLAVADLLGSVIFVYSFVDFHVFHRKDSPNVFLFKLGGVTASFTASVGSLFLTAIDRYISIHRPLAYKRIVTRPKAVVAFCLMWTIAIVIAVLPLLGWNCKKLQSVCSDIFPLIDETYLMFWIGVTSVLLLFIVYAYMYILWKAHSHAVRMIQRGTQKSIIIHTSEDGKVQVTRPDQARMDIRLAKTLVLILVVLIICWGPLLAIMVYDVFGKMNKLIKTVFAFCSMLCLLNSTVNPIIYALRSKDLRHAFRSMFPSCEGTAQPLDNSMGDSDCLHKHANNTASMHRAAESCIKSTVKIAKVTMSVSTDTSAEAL

COC(=O)[C@@H]1[C@@H]2CC[C@@H]2CN1C(=O)c1cc(C)n(-c2cccc(C(F)(F)F)c2)n1 [‘6448]
pKi [95% CI] (CB1 (rCB1); rCB1): 6.1 [5.9 – 6.3] | Ki (CB1 (rCB1); read-out: Ki [95% CI], rCB1, [3H]-CP-55,940): 866 nM | Gi1 hCB1 response (hCB1; Log [Compound] (M) -4.22186): 143.498 | Gi1 hCB1 response (hCB1; Log [Compound] (M) -4.63927): 116.752 | Gi1 hCB1 response (hCB1; Log [Compound] (M) -5.05788): 114.537 | Gi1 hCB1 response (hCB1; Log [Compound] (M) -5.47381): 101.197 | Gi1 hCB1 response (hCB1; Log [Compound] (M) -5.89285): 80.4274 | Gi1 hCB1 response (hCB1; Log [Compound] (M) -6.31878): 64.6261 | Gi1 hCB1 response (hCB1; Log [Compound] (M) -6.72585): 36.0226 | Gi1 hCB1 response (hCB1; Log [Compound] (M) -7.14267): 33.4711 | Gi1 hCB1 response (hCB1; Log [Compound] (M) -7.55284): 2.182 | Gi1 hCB1 response (hCB1; Log [Compound] (M) -8): -1.914 | Gi1 hCB1 response (hCB1; Log [Compound] (M) -8.22186): -2.63 | Gi1 hCB1 response (hCB1; Log [Compound] (M) -8.39794): -2.8987 | Gi1 hCB1 response (hCB1; Log [Compound] (M) -8.68787): 4.689 | Gi1 hCB1 response (hCB1; Log [Compound] (M) -9.15521): 0.03327 | Gi1 hCB1 response (hCB1; Log [Compound] (M) -9.61989): -4.421 | Gi1 hCB1 response (hCB1; Log [Compound] (M) -10.0969): -3.391 | Gi1 hCB1 response (hCB1; Log [Compound] (M) -10.5529): -11.5156 | Gi1 hCB1 response (hCB1; Log [Compound] (M) -11.0177): -16.4171 | Gi1 hCB1 response (hCB1; Log [Compound] (M) -11.4949): -6.8826 | Gi1 hCB1 response (hCB1; Log [Compound] (M) -11.9208): -5.674 | Gi1 hCB1 response (hCB1; Log [Compound] (M) -12.3979): -5.204 | Gi1 hCB1 response (hCB1; Log [Compound] (M) -12.8861): 5.741 | Gi1 hCB1 response (hCB1; Log [Compound] (M) -13, individual replicate values): -12.366 and -4.51 | Gi1 hCB1 (hCB1; Log [Compound] (M) -4.22186): 89.2431 | GoB hCB1 (hCB1; Log [Compound] (M) -4.22186): 86.7412 | Gi1 hCB1 (hCB1; Log [Compound] (M) -4.63927): 88.0098 | GoB hCB1 (hCB1; Log [Compound] (M) -4.63927): 85.932 | Gi1 hCB1 (hCB1; Log [Compound] (M) -5.05788): 83.6623 | GoB hCB1 (hCB1; Log [Compound] (M) -5.05788): 87.6943 | Gi1 hCB1 (hCB1; Log [Compound] (M) -5.47381): 80.8256 | GoB hCB1 (hCB1; Log [Compound] (M) -5.47381): 88.7014 | Gi1 hCB1 (hCB1; Log [Compound] (M) -5.89285): 71.5911 | GoB hCB1 (hCB1; Log [Compound] (M) -5.89285): 74.7104 | Gi1 hCB1 (hCB1; Log [Compound] (M) -6.31878): 53.785 | GoB hCB1 (hCB1; Log [Compound] (M) -6.31878): 55.1804 | Gi1 hCB1 (hCB1; Log [Compound] (M) -6.72585): 28.6559 | GoB hCB1 (hCB1; Log [Compound] (M) -6.72585): 28.2594 | Gi1 hCB1 (hCB1; Log [Compound] (M) -7.14267): 11.4665 | GoB hCB1 (hCB1; Log [Compound] (M) -7.14267): 15.0956 | Gi1 hCB1 (hCB1; Log [Compound] (M) -7.55284): 4.6215 | GoB hCB1 (hCB1; Log [Compound] (M) -7.55284): 3.137 | Gi1 hCB1 (hCB1; Log [Compound] (M) -8): 2.093 | GoB hCB1 (hCB1; Log [Compound] (M) -8): 2.004 | Gi1 hCB1 (hCB1; Log [Compound] (M) -8.22186): -0.06514 | GoB hCB1 (hCB1; Log [Compound] (M) -8.22186): -3.751 | Gi1 hCB1 (hCB1; Log [Compound] (M) -8.39794): 1.1836 | GoB hCB1 (hCB1; Log [Compound] (M) -8.39794): 1.464 | Gi1 hCB1 (hCB1; Log [Compound] (M) -8.68787): -1.113 | GoB hCB1 (hCB1; Log [Compound] (M) -8.68787): -5.28 | Gi1 hCB1 (hCB1; Log [Compound] (M) -9.15521): -0.1114 | GoB hCB1 (hCB1; Log [Compound] (M) -9.15521): -2.294 | Gi1 hCB1 (hCB1; Log [Compound] (M) -9.61989): 0.7519 | GoB hCB1 (hCB1; Log [Compound] (M) -9.61989): -1.629 | Gi1 hCB1 (hCB1; Log [Compound] (M) -10.0969): 0.8753 | GoB hCB1 (hCB1; Log [Compound] (M) -10.0969): -3.751 | Gi1 hCB1 (hCB1; Log [Compound] (M) -10.5529): 1.9236 | GoB hCB1 (hCB1; Log [Compound] (M) -10.5529): -0.9636 | Gi1 hCB1 (hCB1; Log [Compound] (M) -11.0177): -0.281 | GoB hCB1 (hCB1; Log [Compound] (M) -11.0177): -2.384 | Gi1 hCB1 (hCB1; Log [Compound] (M) -11.4949): -0.1268 | GoB hCB1 (hCB1; Log [Compound] (M) -11.4949): -1.305 | Gi1 hCB1 (hCB1; Log [Compound] (M) -11.9208): -0.1885 | GoB hCB1 (hCB1; Log [Compound] (M) -11.9208): 1.266 | Gi1 hCB1 (hCB1; Log [Compound] (M) -12.3979): 1.723 | GoB hCB1 (hCB1; Log [Compound] (M) -12.3979): 0.7628 | Gi1 hCB1 (hCB1; Log [Compound] (M) -12.8861): 0.4436 | GoB hCB1 (hCB1; Log [Compound] (M) -12.8861): -2.798 | Gi1 hCB1 (hCB1; Log [Compound] (M) -13): 0.1969 and 0.2278 | GoB hCB1 (hCB1; Log [Compound] (M) -13): 1.32 and 1.356 | pEC50 [95% CI] (hCB1; hCB1 Gi1): 6.5 [6.4 – 6.5] | Emax [95% CI] (hCB1; hCB1 Gi1): 87 [86 – 88] | pEC50 [95% CI] (hCB1; hCB1 GoB): 6.5 [6.4 – 6.6] | Emax [95% CI] (hCB1; hCB1 GoB): 90 [87 – 91] | pEC50 [95% CI] (hCB1; hCB1 Gz): 6.1 [5.9 – 6.4] | Emax [95% CI] (hCB1; hCB1 Gz): 151 [130 –172] | EC50 (hCB1; hCB1 Gi1): 345 nM | EC50 (hCB1; hCB1 GoB): 310 nM | EC50 (hCB1; hCB1 Gz): 728 nM
